Several values for one entry are separate records, joined by “and”; a condition that tells them apart may be missing. Identical values can stand only once. Like-named read-outs stand apart in the source and are kept apart here. Marks after values point to notes of the source that are not given here.
Test: Mouse pharmacokinetics, brain tissue levels (LC-MS/MS)
Assay type: in vivo
Settings: for concentration at 0.5 h: 0.50 h; for half-life: read-out: Half life (t1/2) (converted)
Procedure: Plasma and brain samples were taken pre-dose and at post dose time points of pre-dose, 15 and 30 minutes, 1, 2, and 8 hours. The pre-dose group was represented by 5 animals, whereas the post-dose groups were represented by 3 animals.
Bioanalysis of mouse plasma samples for compound 20 was conducted by protein precipitation and LC-MS/MS with compound 22 as the internal standard. The method was based on a ‘generic assay’ and some method development was conducted to tailor that assay to the particular compound and internal standard. The eventual non-GLP assay was first tested by analyzing a bioanalytical run with spiked mouse plasma samples. The qualification run passed by the run acceptance criteria (see below). Bioanalysis was then conducted of plasma sample extracts and of brain sample homogenate extracts, using a calibration and quality control samples spiked in mouse plasma. The assay is described below.
Evaluation of pharmacokinetic parameters was conducted by calculation from the mean concentration (n=5 pre-dose, n=3 post-dose) at each time point.

[1] = mouse brain tissue, Table 14, footnote: excluding IRN 12 result
[2] = mouse brain tissue, Table 15, footnote: including IRN 12 result
[3] = mouse, brain homogenate, mouse brain homogenate, read-out: Mean Group Concentration, Homogenate
[4] = mouse, brain, mouse brain tissue, read-out: Mean Group Concentration, Tissue
[5] = mouse, brain, mouse brain tissue, Table 14, footnote: excluding IRN 12 result
[6] = mouse, brain, mouse brain tissue, Table 15, footnote: including IRN 12 result

Which “Homogenate concentration, individual animals” value (shortened to “Homogenate concentration”) (mouse brain homogenate, 15 minutes post dose (B_0.25), 0.00 = below LLOQ 0.988 ng/mL) does the source give for `Nc1nc(-c2c(Cl)cc(Cl)c3c2CCO3)c2[nH]ccc2n1` [compound 20, 4-(5,7-Dichloro-2,3-dihydrobenzofuran-4-yl)-5H-pyrrolo[3,2-d]pyrimidin-2-amine] here?
Its value is 0.00 ^a ng/mL and 1250 ng/mL.

What about the “Homogenate concentration” value (mouse brain homogenate, 30 minutes post dose (C_0.5)) of the same compound?
The value was 844 ng/mL and 1200 ng/mL.

And the “Homogenate concentration” value (mouse brain homogenate, 1 hour post dose (D_1))?
Its value is 859 ng/mL and 789 ng/mL.

What about the “Homogenate concentration” value (mouse brain homogenate, 2 hours post dose (E_2)) of the same compound?
The value was 385 ng/mL and 294 ng/mL.

What about the “Homogenate concentration” value (mouse brain homogenate, 8 hours post dose (F_8)) of the same compound?
The value was 7.53 ng/mL and 1.83 ng/mL and 1.53 ng/mL.

And the “Mean Group Concentration, Tissue” value (mouse brain tissue, 0.25 h, excluding IRN 12 result)?
Its value is “^a excluding IRN 12 result: 15772 ng/g”.

What about the “Mean Group Concentration, Tissue” value (mouse brain tissue, 0.25 h, incl. IRN 12) of the same compound?
Its value is 10515 ^a ng/g.

And the AUC(0-inf) [1]?
The AUC(0-inf) was 22900 ng·h/mL.

And the Kelimination [1]?
Its Kelimination is 0.769 per hour (h^−1).

And the AUC(0-t) (mouse brain tissue, Table 14, footnote: excluding IRN 12 result, read-out: AUC(0-8 h))?
Its AUC(0-t) is 22900 ng·h/mL.

And the Tmax (mouse brain tissue, Table 14, footnote: excluding IRN 12 result, read-out: Tmax)?
Its Tmax is 15 min.

What about the Kelimination [2] of the same compound?
Its Kelimination is 0.789 per hour (h^−1).

What about the Tmax [2] of the same compound?
Its Tmax is 15 min (h).

What about the “Brain concentration, individual animals” value (mouse brain, 15 minutes post dose (B_0.25), 0.00 = below LLOQ) of the same compound?
Its value is 0.00 ^a ng/g and 10870 ng/g.

What about the “Brain concentration, individual animals” value (mouse brain, 30 minutes post dose (C_0.5)) of the same compound?
Its value is 7371 ng/g and 10480 ng/g.

And the “Brain concentration, individual animals” value (mouse brain, 1 hour post dose (D_1))?
Its value is 7486 ng/g and 6846 ng/g.

And the “Brain concentration, individual animals” value (mouse brain, 2 hours post dose (E_2))?
The value was 3341 ng/g and 2518 ng/g.

What about the “Brain concentration, individual animals” value (mouse brain, 8 hours post dose (F_8)) of the same compound?
The value was 63.0 ng/g and 15.0 ng/g and 12.9 ng/g.

And the concentration at 0.25 h (mouse, brain homogenate, mouse brain homogenate, 0.25 h, incl. IRN 12, read-out: Mean Group Concentration, Homogenate)?
Its concentration at 0.25 h is 1180 ng/mL.

What about the concentration at 15 min (mouse, brain homogenate, mouse brain homogenate, 15 minutes post dose (B_0.25), 0.00 = below LLOQ 0.988 ng/mL, read-out: Homogenate concentration, individual animals) of the same compound?
Its concentration at 15 min is 2300 ng/mL.

What about the concentration at 0.5 h [3] of the same compound?
Its concentration at 0.5 h is 1150 ng/mL.

What about the concentration at 30 min (mouse, brain homogenate, mouse brain homogenate, 30 minutes post dose (C_0.5), read-out: Homogenate concentration, individual animals) of the same compound?
The concentration at 30 min was 1400 ng/mL.

What about the concentration at 1 h (mouse, brain homogenate, mouse brain homogenate, 1.00 h, read-out: Mean Group Concentration, Homogenate) of the same compound?
The concentration at 1 h was 845 ng/mL.

What about the concentration at 1 h (mouse, brain homogenate, mouse brain homogenate, 1 hour post dose (D_1), read-out: Homogenate concentration, individual animals) of the same compound?
The concentration at 1 h was 888 ng/mL.

What about the concentration at 2 h (mouse, brain homogenate, mouse brain homogenate, 2.00 h, read-out: Mean Group Concentration, Homogenate) of the same compound?
The concentration at 2 h was 363 ng/mL.

And the concentration at 2 h (mouse, brain homogenate, mouse brain homogenate, 2 hours post dose (E_2), read-out: Homogenate concentration, individual animals)?
Its concentration at 2 h is 410 ng/mL.

And the concentration at 8 h [3]?
The concentration at 8 h was 3.63 ng/mL.

And the concentration at 0.5 h [4]?
The concentration at 0.5 h was 9820 ng/g.

What about the concentration at 1 h (mouse, brain, mouse brain tissue, 1.00 h, read-out: Mean Group Concentration, Tissue) of the same compound?
The concentration at 1 h was 7280 ng/g.

And the concentration at 2 h (mouse, brain, mouse brain tissue, 2.00 h, read-out: Mean Group Concentration, Tissue)?
The concentration at 2 h was 3150 ng/g.

And the concentration at 8 h [4]?
The concentration at 8 h was 30 ng/g.

What about the Cmax [5] of the same compound?
Its Cmax is 10500 ng/g.

And the half-life [5]?
Its half-life is 54 min.

What about the Cmax [6] of the same compound?
Its Cmax is 15800 ng/g.

And the half-life [6]?
The half-life was 52.8 min.

What about the concentration at 15 min (mouse, brain, mouse brain, 15 minutes post dose (B_0.25), 0.00 = below LLOQ, read-out: Brain concentration, individual animals) of the same compound?
Its concentration at 15 min is 20700 ng/g.

And the concentration at 30 min (mouse, brain, mouse brain, 30 minutes post dose (C_0.5), read-out: Brain concentration, individual animals)?
Its concentration at 30 min is 11600 ng/g.

What about the concentration at 1 h (mouse, brain, mouse brain, 1 hour post dose (D_1), read-out: Brain concentration, individual animals) of the same compound?
Its concentration at 1 h is 7490 ng/g.

What about the concentration at 2 h (mouse, brain, mouse brain, 2 hours post dose (E_2), read-out: Brain concentration, individual animals) of the same compound?
The concentration at 2 h was 3600 ng/g.

Reference: patent publication US10336768B2, “Pyrimidine compounds and methods using the same” (Yuma Therapeutics, Inc., priority 2014, dated 2019)
